Assay results as given in ChEMBL document CHEMBL6134930, “Discovery of AB801, a Potent and Selective Inhibitor of AXL Receptor Tyrosine Kinase for Use in Cancer Therapy” (J Med Chem, 2025).

Tests used:
[1] = target: T1, Tyrosine-protein kinase receptor UFO (Homo sapiens, UniProt P30530); assay: Binding affinity to AXL (unknown origin) expressed in HEK293 cells transfected with Nano-Luc fusion vector assessed as dissociation constant by measuring decrease in BRET signal preincubated for 1 hr followed by K-5 NanoBRET tracer addition incubated for 2 hrs; format: cell-based
T1 sequence (P30530 whole entry): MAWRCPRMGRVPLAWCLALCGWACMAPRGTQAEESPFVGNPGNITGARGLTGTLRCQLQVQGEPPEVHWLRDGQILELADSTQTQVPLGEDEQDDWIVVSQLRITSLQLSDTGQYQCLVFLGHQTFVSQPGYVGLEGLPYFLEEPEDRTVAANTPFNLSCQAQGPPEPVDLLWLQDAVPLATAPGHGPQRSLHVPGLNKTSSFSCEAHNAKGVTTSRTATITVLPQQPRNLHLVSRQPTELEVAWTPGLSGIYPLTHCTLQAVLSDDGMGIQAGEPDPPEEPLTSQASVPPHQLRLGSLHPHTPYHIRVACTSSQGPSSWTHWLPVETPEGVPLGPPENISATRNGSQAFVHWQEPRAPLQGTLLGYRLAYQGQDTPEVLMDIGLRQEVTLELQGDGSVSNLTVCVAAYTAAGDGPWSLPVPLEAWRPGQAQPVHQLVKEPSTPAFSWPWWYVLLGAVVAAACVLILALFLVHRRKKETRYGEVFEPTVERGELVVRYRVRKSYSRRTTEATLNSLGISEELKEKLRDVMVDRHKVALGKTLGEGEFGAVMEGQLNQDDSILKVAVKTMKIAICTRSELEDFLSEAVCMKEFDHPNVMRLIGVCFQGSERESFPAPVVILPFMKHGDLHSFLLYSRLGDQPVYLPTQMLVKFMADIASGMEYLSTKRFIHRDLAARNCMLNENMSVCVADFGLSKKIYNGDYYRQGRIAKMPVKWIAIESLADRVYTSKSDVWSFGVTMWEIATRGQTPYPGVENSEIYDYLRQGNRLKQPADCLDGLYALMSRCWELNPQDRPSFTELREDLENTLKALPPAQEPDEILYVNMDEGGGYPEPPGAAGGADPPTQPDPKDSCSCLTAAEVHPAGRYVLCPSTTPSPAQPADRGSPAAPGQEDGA

[2] = target: T1, Tyrosine-protein kinase receptor UFO; assay: Inhibition of human AXL measured after 150 mins by ATP-competitive HTRF based biochemical assay
[3] = target: T1, Tyrosine-protein kinase receptor UFO; assay: Inhibition of autophosphorylation AXL (unknown origin) expressed in HEK293 cells assessed as NanoLuc activity associated with phosphorylated proteins measured after 1 hr incubation by intracellular pAXL-ELISA; format: cell-based
[4] = Metabolic stability in rat hepatocytes assessed as intrinsic clearance measured per 10^6 cells; format: ADME, cell-based, Hepatocyte; details: read-out: CLH
[5] = Metabolic stability in human hepatocytes assessed as intrinsic clearance measured per 10^6 cells; format: ADME, cell-based, Hepatocyte; details: read-out: CLH
[6] = AUCinf in Sprague-Dawley rat at 2 mg/kg, po measured up to 8 hrs by LC-MS/MS analysis; format: ADME, organism-based; details: in vivo
[7] = Apparent permeability of compound from apical to basolateral side in human Caco-2 cells; format: ADME, cell-based; details: read-out: permeability
[8] = Efflux ratio in human Caco-2 cells; format: ADME, cell-based
[9] = Clearance in Sprague-Dawley rat at 0.5 mg/kg, iv measured up to 24 hrs by LC-MS/MS analysis; format: ADME, organism-based; details: in vivo
hERG (KCNH2) = hERG (KCNH2) (Homo sapiens, UniProt Q12809); assay: Inhibition of hERG at 10 uM by high throughput cell based patch clamp assay; format: toxicity
Sequence of hERG (KCNH2) (Q12809 whole entry): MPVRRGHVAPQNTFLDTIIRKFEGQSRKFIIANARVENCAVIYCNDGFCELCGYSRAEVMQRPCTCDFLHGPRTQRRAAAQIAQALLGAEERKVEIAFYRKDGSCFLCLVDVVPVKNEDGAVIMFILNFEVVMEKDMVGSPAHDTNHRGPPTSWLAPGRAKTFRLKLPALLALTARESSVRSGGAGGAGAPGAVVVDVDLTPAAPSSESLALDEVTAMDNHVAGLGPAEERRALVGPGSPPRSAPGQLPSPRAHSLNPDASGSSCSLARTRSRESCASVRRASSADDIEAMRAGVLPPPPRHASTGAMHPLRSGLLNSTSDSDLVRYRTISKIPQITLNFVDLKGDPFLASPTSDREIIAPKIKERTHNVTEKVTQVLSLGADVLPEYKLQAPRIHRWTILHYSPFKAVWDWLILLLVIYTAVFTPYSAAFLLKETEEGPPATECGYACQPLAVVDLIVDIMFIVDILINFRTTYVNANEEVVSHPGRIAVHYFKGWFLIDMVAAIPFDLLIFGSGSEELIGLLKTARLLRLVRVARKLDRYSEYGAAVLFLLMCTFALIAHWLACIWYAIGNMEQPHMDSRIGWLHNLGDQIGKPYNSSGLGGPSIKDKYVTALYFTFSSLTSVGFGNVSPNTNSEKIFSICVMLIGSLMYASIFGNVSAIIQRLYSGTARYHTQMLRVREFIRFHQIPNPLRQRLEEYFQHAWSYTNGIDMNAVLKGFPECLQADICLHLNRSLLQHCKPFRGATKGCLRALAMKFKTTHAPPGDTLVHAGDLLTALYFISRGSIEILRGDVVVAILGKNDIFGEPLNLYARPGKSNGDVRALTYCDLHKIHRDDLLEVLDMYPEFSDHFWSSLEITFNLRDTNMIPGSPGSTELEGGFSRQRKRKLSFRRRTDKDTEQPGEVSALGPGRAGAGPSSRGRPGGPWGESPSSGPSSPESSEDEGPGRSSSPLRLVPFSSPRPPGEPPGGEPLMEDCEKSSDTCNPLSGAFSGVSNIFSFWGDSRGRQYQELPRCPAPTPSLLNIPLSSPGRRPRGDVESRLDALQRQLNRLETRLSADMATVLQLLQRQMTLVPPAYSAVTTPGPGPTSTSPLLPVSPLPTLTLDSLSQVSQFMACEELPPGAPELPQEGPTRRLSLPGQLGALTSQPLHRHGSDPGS

Row | SMILES | Kd [1] [nM] | IC50 [2] [nM] | IC50 [3] [nM] | hepatocyte CLint [4] [µL/min/1e6 cells] | hepatocyte CLint [5] [µL/min/1e6 cells] | AUC(0-inf) [6] [ng·h/mL] | Papp A→B [7] [×10⁻⁶ cm/s] | efflux ratio [8] | clearance [9] [mL/min/kg] | inhibition at 10 µM (hERG (KCNH2)) [%]
1 | Cn1cc(-c2ccc(-c3n[nH]c4ncc(-c5ccc6c(c5)CCC(N5C7COCC5C7)CC6)cc34)cc2)cn1 (racemic) | 2200 | 34 |  |  |  |  |  |  |  | 
2 | Cc1cccnc1-c1ccc(-c2n[nH]c3ncc(-c4ccc5c(c4)CC[C@@H](N4C[C@@H]6C[C@H]4CO6)CC5)cc23)cc1 |  | 1.8 | 57 | 13 | < 2.7 |  |  |  |  | 
3 | O=S1(=O)CCCN1c1ccc(-c2n[nH]c3ncc(-c4ccc5c(c4)CC[C@@H](N4C6COCC4C6)CC5)cc23)cc1 | 51 | 13 |  | < 2.7 | < 2.7 | 39 |  |  |  | 
4 | CO[C@H]1C[C@@H](N[C@H]2CCc3ccc(-c4cnc5[nH]nc(-c6ccc(-c7ncccc7C)cc6)c5c4)cc3CC2)C1 |  | 3.4 | 310 | 6.4 | < 2.7 |  |  |  |  | 
5 | Cn1nncc1-c1ccc(-c2n[nH]c3ncc(-c4ccc5c(c4)CC[C@@H](N4C6COCC4C6)CC5)cc23)cc1 | 91 | 8.9 |  |  |  |  |  |  |  | 
6 | c1cc2c(cc1-c1cnc3[nH]nc(-c4ccc(N5C[C@H]6C[C@@H]5CO6)cc4)c3c1)CC[C@@H](N1C3COCC1C3)CC2 | 130 | 28 |  | 12 | 7.2 | 2900 | 6.7 | 1.2 | 38.3 | 
7 | N#Cc1cccnc1-c1ccc(-c2n[nH]c3ncc(-c4ccc5c(c4)CC[C@@H](N4C6COCC4C6)CC5)cc23)cc1 |  | 6 | 220 | < 2.7 | < 2.7 |  |  |  |  | 
8 | c1cc2c(cc1-c1cnc3[nH]nc(-c4ccc(N5C[C@@H]6C[C@H]5CO6)cc4)c3c1)CC[C@@H](N1C3COCC1C3)CC2 | 140 | 46 |  |  |  |  |  |  |  | 
9 | Cc1cccnc1-c1ccc(-c2n[nH]c3ncc(-c4ccc5c(c4)CC[C@@H](N[C@H]4CCCOC4)CC5)cc23)cc1 |  | 2.6 | 100 | 12 | 5.8 |  |  |  |  | 
10 | COc1cccnc1-c1ccc(-c2n[nH]c3ncc(-c4ccc5c(c4)CC[C@@H](N4C6COCC4C6)CC5)cc23)cc1 |  | 2.4 | 120 | 16 | 13 |  |  |  |  | 
11 | Cn1ccnc1-c1ccc(-c2n[nH]c3ncc(-c4ccc5c(c4)CC[C@@H](N4C6COCC4C6)CC5)cc23)cc1 | 1.9 | 0.63 |  | 16 | < 2.7 | 160 |  | 18 |  | 
12 | Cn1ncnc1-c1ccc(-c2n[nH]c3ncc(-c4ccc5c(c4)CC[C@@H](N4C6COCC4C6)CC5)cc23)cc1 | 7.1 | 2.7 |  | 5 | < 2.7 | 410 |  | 5.7 |  | 
13 | CN(C)S(=O)(=O)c1ccc(-c2n[nH]c3ncc(-c4ccc5c(c4)CC[C@@H](N4C6COCC4C6)CC5)cc23)cc1 | 15 | 2.6 |  | 110 | 36 |  |  |  |  | 
14 | COCCOc1cccnc1-c1ccc(-c2n[nH]c3ncc(-c4ccc5c(c4)CC[C@@H](N4C6COCC4C6)CC5)cc23)cc1 |  | 1.3 | 33 | 16 | 3.2 |  |  |  |  | 
15 | CCc1cccnc1-c1ccc(-c2n[nH]c3ncc(-c4ccc5c(c4)CC[C@@H](N4C6COCC4C6)CC5)cc23)cc1 |  | 1.4 | 190 | 30 | 6.3 |  |  |  |  | 
16 | c1cc2c(cc1-c1cnc3[nH]nc(-c4ccc5c(c4)OCCO5)c3c1)CCC(N1C3COCC1C3)CC2 (racemic) | 69 | 17 |  | 46 | 16 |  |  |  |  | 
17 | Cn1nccc1-c1ccc(-c2n[nH]c3ncc(-c4ccc5c(c4)CC[C@@H](N4C6COCC4C6)CC5)cc23)cc1 | 31 | 3.9 |  |  |  |  |  |  |  | 
18 | c1cncc(-c2ccc(-c3n[nH]c4ncc(-c5ccc6c(c5)CC[C@@H](N5C7COCC5C7)CC6)cc34)cc2)c1 | 410 | 19 |  |  |  |  |  |  |  | 
19 | O=C1OCCN1c1ccc(-c2n[nH]c3ncc(-c4ccc5c(c4)CC[C@@H](N4C6COCC4C6)CC5)cc23)cc1 | 27 | 15 | 390 | 4.3 | < 2.7 | 1500 | 8 | 3.3 | 8.17 | 44
20 | c1cc2c(cc1-c1cnc3[nH]nc(-c4ccc(N5CC6(COC6)C5)cc4)c3c1)CC[C@@H](N1C3COCC1C3)CC2 | 120 | 27 |  |  |  |  |  |  |  | 
21 | COCCOc1ccc(-c2n[nH]c3ncc(-c4ccc5c(c4)CC[C@@H](N4C6COCC4C6)CC5)cc23)cc1 | 66 | 12 |  | 9.1 | 14 | 4200 | 17 | 0.93 | 15 | 84
22 | CS(=O)(=O)c1ccc(-c2n[nH]c3ncc(-c4ccc5c(c4)CC[C@@H](N4C6COCC4C6)CC5)cc23)cc1 | 13 | 3.8 |  | 9.8 | 5.8 | 120 |  |  |  | 
23 | FC(F)(F)c1cccnc1-c1ccc(-c2n[nH]c3ncc(-c4ccc5c(c4)CC[C@@H](N4C6COCC4C6)CC5)cc23)cc1 |  | 8.2 | 730 | < 2.7 | < 2.7 |  |  |  |  | 
24 | c1cc2c(cc1-c1cnc3[nH]nc(-c4ccc(N5CCOCC5)cc4)c3c1)CC[C@@H](N1C3COCC1C3)CC2 | 190 | 66 |  |  |  |  |  |  |  | 
25 | c1cc(-c2n[nH]c3ncc(-c4ccc5c(c4)CCC(N4C6COCC4C6)CC5)cc23)ccn1 (racemic) | 38 | 20 |  | 13 | 8.7 | 130 |  |  |  | 
26 | Cc1cccnc1-c1ccc(-c2n[nH]c3ncc(-c4ccc5c(c4)CC[C@@](C)(N4CCC[C@H]4C)CC5)cc23)cc1 |  | 0.75 | 13 | < 2.7 | < 2.7 | 380 |  |  |  | 
27 | O=C1CCCN1c1ccc(-c2n[nH]c3ncc(-c4ccc5c(c4)CC[C@@H](N4C6COCC4C6)CC5)cc23)cc1 | 89 | 60 |  |  |  |  |  |  |  | 
28 | c1ccc(-c2ccc(-c3n[nH]c4ncc(-c5ccc6c(c5)CC[C@@H](N5C7COCC5C7)CC6)cc34)cc2)nc1 | 75 | 5 | 1700 | < 2.7 | < 2.7 | 2800 |  |  |  | 
29 | CP(C)(=O)c1ccc(-c2n[nH]c3ncc(-c4ccc5c(c4)CCC(N4C6COCC4C6)CC5)cc23)cc1 (racemic) | 170 |  |  |  |  |  |  |  |  | 
